The values that follow come from patent publication US7629140B2, “Assay for cytochrome P450 isoform 2C9” (Istituto di Richerche di Biologia Molecolare P. Angeletti …, priority 2004, dated 2009).

Data set [1] deals with T1, CYP2C9 (Homo sapiens, UniProt P11712). The experiment in a line: Radiometric CYP2C9 assay using [4′-3H]-diclofenac: formation of [3H]-H2O in pooled human liver microsomes. How it is done:
(§1) Radiometric CYP2C9 assays using [4′-^3H]-diclofenac. […] (Woburn, Mass.). Inhibitors were added to the reaction mixture from stock solutions in DMSO/acetonitrile/water (35:25:40, v/v), giving final solvent concentrations of 0.7% DMSO and 0.5% acetonitrile. No inhibitor controls contained an equivalent amount of vehicle. Following preincubation for 10 minutes at 37° C., reactions were started by addition of 1 mM NADPH and an NADPH regenerating system containing 5 mM glucose-6-phosphate, 3 mM MgCl2, and 1 U/mL glucose-6-phosphate dehydrogenase. Assays were conducted for 10 minutes at 37° C. and stopped by addition of HCl to a final concentration of 0.1 N. Plates were then centrifuged for 10 minutes in a microplate rotor and supernatants loaded into the wells of a preconditioned 10 mg OASIS 96-well HLB plate. OASIS HLB 96 well extraction plates and vacuum manifold are available from Waters Corp., Newcastle, Del. Vacuum was applied and the void volume collected in the collection plate. Then, 75 μL of water was added, vacuum was applied again, and the wash was collected into the same plate. Pooled void volume and water wash were transferred into scintillation vials and counted in a beta-scintillation counter. Alternatively, aliquots were counted in 24- or 96-well scintillation plates using a TOPCOUNT scintillation counter (Packard, Perkin Elmer, Boston, Mass.). For the calculation of enzyme activity, product counts were corrected by subtraction of counts obtained in control incubations performed in the absence of NADPH regenerating system.
Calculation of the apparent rate of formation of unlabelled product from tracer competition experiments. When assays are performed using a fixed amount of [4′-^3H]-diclofenac and varying concentrations of unlabelled diclofenac, the velocity of formation of unlabelled product, v, is given by: v=v*/SAP equation 3 where v* is the velocity of formation of tritiated water. Substituting from equation 2, we obtain: v=v*x(^TV/K)/SA0 equation 4 Defining v′ as the velocity of formation of unlabelled product divided by the kinetic isotope effect, i.e. v′=v/(^TV/K) equation 5 we obtain v′=v*/SA0 equation 6 Without using the known ^TV/K ratio (which would be tautological, since it was derived from SAP), v′, the apparent formation rate of unlabelled product, can be calculated. When plotted against the substrate concentration, S, and fitted to the Hill equation (equation 7), V′max, S50, the substrate concentration at 50%, and n, the Hill coefficient, can be derived.

Data set [2] has as its target T1, CYP2C9. Briefly: in vitro. How it is done:
as §1
Quantification of 4′hydroxydiclofenac. Aliquots of the assay reaction mixture and of metabolite standard curves were analyzed by HPLC using an Agilent HP1100 liquid chromatograph (Agilent Technologies) equipped with a CTC Analytics PAL Autosampler (HTS PAL; CTC Analytics AG, Switzerland). Chromatography was performed on a XTERRA MS C18 column (4.6 mm×5 cm; 5 μm; Waters Corp., Medford, Mass.) at a flow rate of 2 mL/min, using a mobile phase consisting of a mixture of 0.1% formic acid in water (A) and 0.1% formic acid in acetonitrile (B) (linear gradient 0 to 0.5 min, 10% B; 3.0 min 90% B, 3.5 min 90% B, 3.6 min 10% B; the system was equilibrated for 1.4 minutes at 10% B prior to the next injection). The eluate was diverted to waste for the first minute, and then to a Sciex API-3000 triple quadruple mass spectrometer (available, for example, from Perkin Elmer, Boston, Mass.) with a Turbo Ionspray ionization source operated in the positive ion mode. […] Metabolite concentrations were determined by weighted linear least-squares regression analysis, using Analyst Quantitation Wizard software version 1.2 (Applied Biosystems, Foster City, Calif.).
To compare IC50 values of several known CYP2C9 inhibitors obtained in the radiometric assay with those obtained by conventional HPLC-mass spectrometric assay, reactions were performed in the absence or presence of different concentrations of known inhibitors. Tritiated water formation and formation of unlabelled reaction product 4′OH-diclofenac were determined in the same reaction mixture. The 4′-OH-diclofenac was quantified by HPLC coupled to triple quadruple mass spectrometric analysis.

Data set [3] concerns the target T1, CYP2C9. Particulars: sulfaphenazole at 10 μM, 10 μM unlabelled diclofenac, FIG. 12.
In data set [4] the target is T1, CYP2C9. Particulars: Cohen et al.; cited from earlier work.

T1 sequence (P11712 whole entry): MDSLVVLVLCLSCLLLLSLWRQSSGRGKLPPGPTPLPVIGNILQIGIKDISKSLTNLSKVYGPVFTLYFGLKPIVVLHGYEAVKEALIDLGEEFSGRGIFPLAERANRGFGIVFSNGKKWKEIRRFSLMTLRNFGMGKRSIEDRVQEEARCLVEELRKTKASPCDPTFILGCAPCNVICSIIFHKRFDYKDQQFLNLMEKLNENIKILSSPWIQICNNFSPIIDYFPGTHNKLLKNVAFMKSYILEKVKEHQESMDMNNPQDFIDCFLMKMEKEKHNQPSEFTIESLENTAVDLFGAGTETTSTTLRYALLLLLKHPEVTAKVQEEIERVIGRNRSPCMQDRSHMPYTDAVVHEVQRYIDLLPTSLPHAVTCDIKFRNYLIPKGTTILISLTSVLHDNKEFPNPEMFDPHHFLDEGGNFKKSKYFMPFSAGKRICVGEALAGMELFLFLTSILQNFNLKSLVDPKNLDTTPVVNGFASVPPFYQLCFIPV

In the case of `Cc1ccc(C)c(OCCCC(C)(C)C(=O)O)c1` [Gemfibrozil], at CYP2C9 [1], inhibition was half-maximal at 27.7 ± 6.9 µM (IC50) and the “Ratio (radiometric/conventional)” value amounted to 0.71. The same compound registered a half-inhibitory concentration (IC50) on CYP2C9 [2] of 39.1 ± 7.1 µM.
For `COc1ccc2c(c1)c(CC(=O)O)c(C)n2C(=O)c1ccc(Cl)cc1` [Indomethacin], in that order: 54.8 ± 8.1 µM, 0.96 and 57 ± 10.5 µM.
For `COCC(=O)O[C@]1(CCN(C)CCCc2nc3ccccc3[nH]2)CCc2cc(F)ccc2[C@@H]1C(C)C` [Mibefradil], in that order: 40 ± 5 µM, 0.69 and 57.6 ± 9.9 µM.
For the compound `Clc1ccc(COC(Cn2ccnc2)c2ccc(Cl)cc2Cl)c(Cl)c1` (centres unmarked) [Miconazole], at CYP2C9 [1], the IC50 stood at 0.2 ± 0.02 µM and the “Ratio (radiometric/conventional)” value is given as 1.54. The IC50 against CYP2C9 [2] is 0.13 ± 0.03 µM.
For the compound `COc1ccc2[nH]c([S+]([O-])Cc3ncc(C)c(OC)c3C)nc2c1` (centres unmarked) [Omeprazole], on CYP2C9 [1], inhibition was half-maximal at 43.8 ± 10.4 µM (IC50) and the “Ratio (radiometric/conventional)” value came out at 1.04. The same compound gave an IC50 against CYP2C9 [2] of 42.3 ± 15.3 µM.
For `CCCCC1C(=O)N(c2ccccc2)N(c2ccccc2)C1=O` [Phenylbutazone], in that order: 41.4 ± 6.5 µM, 0.94 and 44.2 ± 2.2 µM.
Taken in the same sequence, the figures for `CC(=O)[C@H]1CC[C@H]2[C@@H]3CCC4=CC(=O)CC[C@]4(C)[C@H]3CC[C@]12C` [Progesterone] were 25.2 ± 3.1 µM, 1.26 and 20 ± 4.6 µM.
Turning to `CC(=O)C[C@@H](c1ccccc1)c1c(O)c2ccccc2oc1=O` [S-Warfarin], the IC50 on CYP2C9 [1] (read-out: IC50 (μM) radiometric, HLM, formation rate of [3H]-H2O from [4′-3H]-diclofenac, mean ± SEM, n = 2) was determined as 14.6 ± 2.3 µM; on CYP2C9 [2] (read-out: IC50 (μM) Conventional, HLM, formation rate of 4′-hydroxydiclofenac by LC-MS/MS, same reaction mixture, mean ± SEM, n = 2) it was 8.7 ± 3.6 µM.
Regarding `Nc1ccc(S(=O)(=O)Nc2ccnn2-c2ccccc2)cc1` [Sulfaphenazole], at CYP2C9 [1], the “Ratio (radiometric/conventional)” value turned out to be 0.96. In addition, the “effect on NADPH-dependent formation of tritiated water from [4′-3H]-diclofenac in HLM (in words)” value at CYP2C9 [1] (human, microsomes) is recorded as “inhibited”. For the same compound, the “effect on formation of tritiated water from [4′-3H]diclofenac in human hepatocytes (in words)” value on CYP2C9 [3] was “almost totally inhibited”.
For `O=C(O)Cc1ccccc1Nc1c(Cl)cccc1Cl` [diclofenac], the “ratio between V′max and Vmax” value at CYP2C9 [1] is given as 0.9. Besides, at CYP2C9 [1] (human, 10 min, pH 7.6), the “Hill coefficient n (v′ vs. S)” value is 1.15±0.05 and the “V′max (apparent maximal rate of product formation)” value was found to be 1.5 ± 0.1 nmol/min/mg. The Km at 10 min at CYP2C9 [1] (human, microsomes, pH 7.6) was 6.8 ± 1 µM. Also, the “Hill coefficient of 4′-hydroxydiclofenac formation” value at CYP2C9 [2] (human, 10 min, pH 7.6) is recorded as 1.1±0.1. Further, the Km at 10 min on CYP2C9 [2] (human, microsomes, pH 7.6) was 6.2 ± 0.9 µM. Moreover, the Km at CYP2C9 [2] (human, pH 7.6) is around 6 µM.
For `Cc1nc2c([nH]1)c(=O)n(C)c(=O)n2Cc1ccco1` [furafylline], at CYP2C9 [1] (human, microsomes), the “effect on NADPH-dependent formation of tritiated water from [4′-3H]-diclofenac in HLM (in words)” value was “none of these agents significantly affected”.
On to `CC(=O)CC(c1ccccc1)c1c(O)c2ccccc2oc1=O` (centres unmarked) [warfarin], for which, at CYP2C9 [4], the “inhibitor of CYP2C9 when probed with the fluorogenic substrate MFC” value was “not”.
